Laboratory results reported in patent EP0084677A1, “New compound having mucoregulating and fluidifying activity, process for its production and relative pharmaceutical compositions” (priority 1982, dated 1983).

What was measured:
Wistar rat = test: Acute toxicity (Litchfield and Wilcoxon method), rat; type: in vivo
Description: (§1) The acute toxicity has been determined in Swiss mouse and in Wistar rat for different administra tion routes, according to the method of Litch- field J.T. and Wilcoxon LJ. Pharm. Exp. Therap. 96, 99-113 (1949)]. The results obtained are reported in the following Table I; from the same it can be pointed out how AFP 736 is endowed with a very low acute toxicity.

male Wistar rat = test: Bronchosecretogogue activity (method of Mawatari); type: in vivo; details: 500 mg/kg/os, FlNa = Sodium fluoresceine
male rabbit = test: Mucosecretolytic activity (technique of Giraldez et al.); type: in vivo; details: 500 mg/kg/os
[1] = test system: tracheo-bronchial mucus from rabbit; test: Fluidifying activity "in vivo" (microviscosimeter on tracheo-bronchial mucus); details: 500 mg/kg/os
Swiss mouse = test: Acute toxicity (Litchfield and Wilcoxon method), mouse; type: in vivo
Description: as §1

Compound: 5-[(2-metho xy-phenoxy) caxbonyloxy]- α,α, 4-trimethyl-3-cyclohexen-1-methanol [AFP 736]
- LD50 (Wistar rat; i.p.): 2340 mg/kg
- LD50 (Wistar rat; os): >4000 mg/kg
- % Increase of FlNa in comparison with controls (male Wistar rat): 79.3%
- % Increase of secretion in comparison with controls (male rabbit): 45.5%
- % Reduction of mucus viscosity [1]: 32.2%
- LD50 (Swiss mouse; i.p.): 1750 mg/kg
- LD50 (Swiss mouse; os): 3100 mg/kg

Compound: COc1ccccc1O [Guaiacol, 2-methoxyphenol]
- % Reduction of mucus viscosity [1]: 4.1%

Compound: COc1ccccc1OCC(O)CO (centres unmarked) [Guaiphe-nesine, guaiphenesin]
- % Increase of FlNa in comparison with controls (male Wistar rat): 12.6%

Compound: CC1=CCC(C(C)(C)O)CC1O (centres unmarked) [Sobrerol, 2-methyl-5-(1-hydroxy-1-methyl-ethyl)-2-cyclohexen-1-ol]
- % Increase of FlNa in comparison with controls (male Wistar rat): 33.4%
- % Increase of secretion in comparison with controls (male rabbit): 36.8%
- % Reduction of mucus viscosity [1]: 15.6%

Compound: NC(CSCC(=O)O)C(=O)O (centres unmarked) [Carboxy-methylcysteine, carboxymethylcysteine]
- % Increase of FlNa in comparison with controls (male Wistar rat): 39.7%
- % Increase of secretion in comparison with controls (male rabbit): 40.2%
